Test: Compound was tested for calcium mobilization using rat basophilic leukemia cells at concentration of 5 mM
Format: functional, cell-based
Settings: RBL-1

EC50: 70 µM
SMILES: O=P(O)(O)C[C@@H]1[C@@H](O)[C@H](O)[C@H](O)[C@H](O)[C@H]1CP(=O)(O)O

— ChEMBL document CHEMBL1150482, “Synthesis of the 4,5 diphosphonate analog of D,L-myo-inositol 4,5-diphosphate” (Bioorg Med Chem Lett, 1993)
